Results taken from US7109193B2, “Tricyclic diazepines tocolytic oxytocin receptor antagonists” (Wyeth, priority 2001, dated 2006).

Columns and labels:
human oxytocin receptor = biological target: T1, human oxytocin receptor (Homo sapiens, UniProt P30559); assay: Oxytocin binding in Chinese Hamster Ovary cell membranes expressing human oxytocin receptors; details: 100 nM, CHO cell membranes, [3H]oxytocin, values without parentheses; for inhibition at 0.1 µM: read-out: OT % inhibition @ 100% nM
T1 construct: host or cells: CHO cells (pcDNA3.1 vector)
T1 sequence (P30559 1-389): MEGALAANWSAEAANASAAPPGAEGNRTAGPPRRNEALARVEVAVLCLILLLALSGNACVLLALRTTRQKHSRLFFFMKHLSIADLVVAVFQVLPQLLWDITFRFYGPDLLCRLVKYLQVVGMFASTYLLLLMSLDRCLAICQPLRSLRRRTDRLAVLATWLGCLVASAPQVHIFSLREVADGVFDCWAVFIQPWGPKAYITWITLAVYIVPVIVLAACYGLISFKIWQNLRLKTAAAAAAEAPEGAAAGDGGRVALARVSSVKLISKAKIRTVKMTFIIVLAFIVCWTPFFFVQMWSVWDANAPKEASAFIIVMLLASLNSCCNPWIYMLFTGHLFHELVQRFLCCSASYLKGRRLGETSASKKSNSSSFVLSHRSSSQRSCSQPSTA

Row | melting point | inhibition at 0.1 µM (human oxytocin receptor) | SMILES | OT % inhibition @ 100% nM (human oxytocin receptor)
1 | 55 to 64 °C | 37% | Cc1cc(C(=O)N2Cc3ccc(C(=O)N(CCCN(C)C)CCCN(C)C)n3Cc3ccccc32)ccc1-c1ccccc1C(F)(F)F [Example 3, 10-[(2-Methyl-2′-trifluoromethyl-[1,1′-biphenyl]-4-yl)-carbonyl]-10,11-dihydro-5H-pyrrolo[2,1-c][1,4]benzodiazepine-3-carboxylic acid bis-(3-dimethylamino-propyl)-amide] | –
2 | – | 89% | COc1ccccc1-c1ccc(C(=O)N2Cc3ccc(C(=O)N4CCC(N5CCCCC5)CC4)n3Cc3ccccc32)cc1C [Example 112, {10-[(2-Methyl-2′-methoxy[1,1′-biphenyl]-4-yl)carbonyl]-10,11-dihydro-5H-pyrrolo[2,1-c][1,4]benzodiazepin-3-yl}[4-(1-piperidinyl)-1-piperidinyl]methanone] | –
3 | – | 56% | COc1cc(-c2ccccc2C)c(Cl)cc1C(=O)N1Cc2ccc(C(=O)NCCN3CCCCC3)n2Cc2ccccc21 [Example 155, 10-[(6-Chloro-3-methoxy-2′-methyl[1,1′-biphenyl]-4-yl)carbonyl]-N-[2-(1-piperidinyl)ethyl]-10,11-dihydro-5H-pyrrolo[2,1-c][1,4]benzodiazepine-3-carboxamide] | –
4 | – | 84% | COc1cc(C(=O)N2Cc3ccc(C(=O)N4CCC(N5CCCCC5)CC4)n3Cc3ccccc32)ccc1-c1ccccc1C [Example 116, {10-[(2-Methoxy-2′-methyl[1,1′-biphenyl]-4-yl)carbonyl]-10,11-dihydro-5H-pyrrolo[2,1-c][1,4]benzodiazepin-3-yl}[4-(1-piperidinyl)-1-piperidinyl]methanone] | –
5 | – | 69% | COc1cccc(-c2ccc(C(=O)N3Cc4ccc(C(=O)N5CCC(N6CCCCC6)CC5)n4Cc4ccccc43)cc2OC)c1 [Example 120, {10-[(2,3′-Dimethoxy-[1,1′-biphenyl]-4-yl)carbonyl]-10,11-dihydro-5H-pyrrolo[2,1-c][1,4]benzodiazepin-3-yl}[4-(1-piperidinyl)-1-piperidinyl]methanone] | –
6 | – | – | COc1cc2c(cc1OC)N(C(=O)c1ccc(-c3ccccc3C(F)(F)F)c(C)c1)Cc1ccc(C(=O)N(C)CCCN(C)C)n1C2.Cl [Example 13, N-Methyl-[N-(3-dimethylamino)propyl]-7,8-dimethoxy-10-{[2-methyl-2′-(trifluoromethyl)[1,1′-biphenyl]-4-yl]carbonyl}-10,11-dihydro-5H-pyrrolo[2,1-c][1,4]benzodiazepine-3-carboxamide hydrochloride salt] | 33%
7 | – | – | Cc1cc(C(=O)N2Cc3ccc(C(=O)NCCCN(C)C)n3Cc3ccccc32)ccc1-c1ccccc1C(F)(F)F [Example 84, N-[3-(Dimethylamino)propyl]-10-{[2-methyl-2′-(trifluoromethyl)[1,1′-biphenyl]-4-yl]carbonyl}-10,11-dihydro-5H-pyrrolo[2,1-c][1 .4]benzodiazepine-3-carboxamide] | 48%
8 | – | – | COc1cc(C(=O)N2Cc3ccc(C(=O)N4CC[C@@H](N(C)C)C4)n3Cc3ccccc32)ccc1-c1ccccc1C [Example 281, [(3R)-3-(Dimethylamino)pyrrolidinyl]{10-[(2-methoxy-2′-methyl[1,1′-biphenyl]-4-yl)carbonyl]-10,11-dihydro-5H-pyrrolo[2,1-c][1,4]benzodiazepin-3-yl}methanone] | 93%
9 | – | 78% | Cc1cc(C(=O)N2Cc3ccc(C(=O)N4CCC(N5CCCC5)CC4)n3Cc3ccccc32)ccc1-c1ccccc1C(F)(F)F [Example 148, (10-{[2-Methyl-2′-(trifluoromethyl)[1,1′-biphenyl]-4-yl]carbonyl}-10,11-dihydro-5H-pyrrolo[2,1-c][1,4]benzodiazepin-3-yl)[4-(1-pyrrolidinyl)-1-piperidinyl]methanone] | –
10 | – | 78% | COc1cccc(-c2ccc(C(=O)N3Cc4ccc(C(=O)N5CCC(N6CCCC6)CC5)n4Cc4ccccc43)cc2OC)c1 [Example 146, {10-[(2,3′-Dimethoxy[1,1′-biphenyl]-4-yl)carbonyl]-10,11-dihydro-5H-pyrrolo[2,1-c][1,4]benzodiazepin-3-yl}[4-(1-pyrrolidinyl)-1-piperidinyl]methanone] | –
